Measured values reported in patent US20110008465A1, “SESQUITERPENE FORMULATIONS, KITS AND METHODS OF USE THEREOF” (priority 2007, published 2011).

Columns and labels:
A-549 (lung cancer) = test: Chou and Talalay combination assay with beta-caryophyllene; assay type: cell-based, human; details: anticancer drug in combination with beta-caryophyllene; Chou and Talalay CI; 48 h
Procedure: (§1) Each solution was prepared fresh and use within 1 hour after preparation.
(§2) Cells were then harvested using trypsine-EDTA. Cells were counted using a hemocytometer and resuspended in DMEM+10% FBS medium.
(§3) Proliferation assay: Increasing concentrations of the anticancer agents and/or beta-caryophyllene were added to 96-well plate (100 μL per well). The final concentration of solvent in the culture medium was maintained below 0.5% (volume/volume) to avoid solvent toxicity.
(§4) The cells were incubated for 48 h at 37° C. and 5% CO2. Cytotoxicity was assessed using the resazurin reduction test (O'Brien et al., 2000). Fluorescence was measured on an automated 96-well Fluoroskan Ascent FI™ plate reader (Labsystems) using excitation and emission wavelengths of 530 nm and 590 nm, respectively. Resazurin was then removed.
(§5) Microplates were frozen at −20° C. overnight. Plates were thawed, a volume of 100 μl of 0.01% SDS in water was added to the wells, the plates were shaken at room temperature for 3 hours and then frozen once more at −20° C. overnight. […] Plates were shaken in the dark (at room temperature) for at least 2 hours, and fluorescence was measured on an automated 96-well Fluoroskan Ascent FI™ plate reader (Labsystems) using excitation and emission wavelengths of 360 nm and 460 nm, respectively.
(§6) Results were analyzed using the Chou and Talalay method (9) and may be interpreted as follow: Cl>1 represents an antagonist effect of beta-caryophyllene with the corresponding anticancer agent; Cl=1 represents an additive effect of beta-caryophyllene with the corresponding anticancer agent; Cl<1 represents a potentiating effect of beta-caryophyllene with the corresponding anticancer agent.

MCF-7 (breast cancer) = test: as above; assay type: cell-based, human; details: anticancer drug in combination with beta-caryophyllene; Chou and Talalay CI; 48 h
Procedure: as §1, §2, §3, §4, §5, §6

DLD-1 (colon cancer) = test: as above; assay type: cell-based, human; details: anticancer drug in combination with beta-caryophyllene; Chou and Talalay CI; 48 h
Procedure: as §1, §2, §3, §4, §5, §6

PA-1 (ovary cancer) = test: as above; assay type: cell-based, human; details: anticancer drug in combination with beta-caryophyllene; Chou and Talalay CI; 48 h
Procedure: as §1, §2, §3, §4, §5, §6

[1] = system: MDA-MB-231 (breast cancer); test: as above; assay type: cell-based, human; details: anticancer drug in combination with beta-caryophyllene; Chou and Talalay CI; 48 h
Procedure: as §1, §2, §3, §4, §5, §6

PC-3 (prostate cancer) = test: as above; assay type: cell-based, human; details: anticancer drug in combination with beta-caryophyllene; Chou and Talalay CI; 48 h
Procedure: as §1, §2, §3, §4, §5

[2] = system: GL-261 (murine glioblastoma); test: as above; assay type: cell-based; details: anticancer drug in combination with beta-caryophyllene; Chou and Talalay CI; 48 h
Procedure: as §1, §2, §3, §4, §5, §6

B16 (murine melanoma) = test: as above; assay type: cell-based; details: anticancer drug in combination with beta-caryophyllene; Chou and Talalay CI; 48 h
Procedure: as §1, §2, §3, §4, §5, §6

[3] = system: U-251 (human glioblastoma); test: as above; assay type: cell-based; details: anticancer drug in combination with beta-caryophyllene; Chou and Talalay CI; 48 h
Procedure: as §1, §2, §3, §4, §5, §6

MEL-2 (human melanoma) = test: as above; assay type: cell-based; details: anticancer drug in combination with beta-caryophyllene; Chou and Talalay CI; 48 h
Procedure: as §1, §2, §3, §4, §5, §6

MCF-7 = test: Cytotoxicity of alpha-humulene and isocaryophyllene alone or combined with beta-caryophyllene; assay type: cell-based, human
Procedure: Combinations of beta-caryophyllene and two other antitumor agents, isocaryophyllene and α-humulene, were also tested as described above with some adaptations. 5×10^3 cells per well were allowed to adhere for 16 hours before treatment. The final concentration of solvent in the culture medium was maintained at 0.5% (volume/volume) to avoid toxicity. These combinations were tested on MCF-7.

[4] = system: B16-F1 mouse skin melanoma
Procedure: Formulations: Two formulations were used for this study. The first one was prepared for groups treated with paclitaxel alone while the other one was prepared for the paclitaxel/caryophyllene combination (Table 5). […] These solutions were further diluted with 19 mL of a solution containing soya lecithin (2.85 mL), glycerol (0.95 mL) and polysorbate 80 (380 μL) in water (14.82 mL). Each solution was prepared fresh and used within 30 minutes after preparation (see Table 5 below for presenting formulations).
Mice: All the experiments were carried out using B6D2F1 male mice, 6-weeks old (Charles Rivers Inc., St-Constant, QC). They were handled and cared for in accordance with the Guide for the Care and Use of Laboratory Animals.
Cells (passages #7 to 21) were grown to 90% confluence in complete MEM medium containing Earle's salts and L-glutamine (Mediatech Cellgro, Va.), 10% fetal bovine serum (Hyclone), vitamins (1×), penicillin (100 I.U./mL) and streptomycin (100 μg/mL), essential amino acids (1×) and sodium pyruvate (1×) (Mediatech Cellgro, Va.). Cells were then harvested using 0.5% trypsin-EDTA (Mediatech Cellgro, Va.). Cells were counted using a hemacytometer and resuspended in MEM medium without SVF. 100 μL of a solution containing […] per well were inoculated subcutaneously in each mice.
Administration: To establish animal tumor models, 2.5×10^6 cells were resuspended in 100 μL of MEM medium without SVF (Mediatech Cellgro, Va.) and injected into the subcutaneous tissue of the right flank of the mice on day zero. […] Treatments by intravenous injections (tail vein) were performed on days 7, 10, 13.
Data analysis: Antitumor activity was evaluated according to two parameters as follows:
CTW values were averaged within each group during and after drug treatment over a period of 17 days post-tumor implant. […] Values of p<0.05 were considered statistically significant.

tumor cell lines = test: Comparative potentiating effect of beta-caryophyllene and Tesmilifene (DPPE) combined with 5 antitumor classes; assay type: cell-based
Procedure: as §1, §2, §3, §4, §5, §6

[5] = paclitaxel 2 mg/kg, beta-caryophyllene 1%, i.v. days 7, 10, 13

COc1cc2ncnc(Nc3cccc(Cl)c3)c2cc1OC [Tyrphostin, Tyrphostin AG 1478]
Potentiating activity A-549 (A-549 (lung cancer)): (3) (Moderate: 0.5 < CI < 0.8 at IC50) | Potentiating activity MCF-7 (MCF-7 (breast cancer)): (1) (Very High: CI equal or below 1 at IC20 and Cl below 0.6 to IC50) | Potentiating activity DLD-1 (DLD-1 (colon cancer)): (1) (Very High: CI equal or below 1 at IC20 and Cl below 0.6 to IC50) | Potentiating activity PA-1 (PA-1 (ovary cancer)): (2) (High: CI < 0.5 to IC50) | Potentiating activity MDA [1]: (4) (Weak: 0.8 < CI < 1 at IC50) | Potentiating activity PC-3 (PC-3 (prostate cancer)): (2) (High: CI < 0.5 to IC50) | Potentiating activity GL-261 [2]: (3) (Moderate: 0.5 < CI < 0.8 to IC50) | Potentiating activity B16 (B16 (murine melanoma)): (1) (Very High: potentiating or additive activity to IC20 and CI < 0.6 to IC50) | Potentiating activity U-251 [3]: (1) (Very High: potentiating or additive activity to IC20 and CI < 0.6 to IC50) | Potentiating activity MEL-2 (MEL-2 (human melanoma)): (1) (Very High: potentiating or additive activity to IC20 and CI < 0.6 to IC50)

C=C1CC/C=C(\C)CC[C@@H]2[C@@H]1CC2(C)C [beta-caryophyllene, (1R,4E,9S)-4-11,11-trimethyl-8-methylenebicyclo[7.2.0]undec-4-ene]
effect on anticancer activity of alpha-humulene and isocaryophyllene (MCF-7; beta-caryophyllene 2.5 to 40 μg/ml): increases significantly anticancer activity | effect on tumor growth (in words) ([4]; B16 melanoma-bearing mice, i.v. days 7, 10, 13): do not significantly inhibit tumor growth | Observations: animals surviving on day 17 ([4]; male, B6D2F1, mouse, in vivo, 17 day): 08/08 animals | Treated/Control (%) on day 13 [4, 5]: 95% | Treated/Control (%) on day 14 [4, 5]: 100% | Treated/Control (%) on day 15 [4, 5]: 89% | Treated/Control (%) on day 16 [4, 5]: 91% | Treated/Control (%) on day 17 [4, 5]: 111% | Alkylating agents % (tumor cell lines; class (1) Very High): 50% | Alkylating agents Total (60) (tumor cell lines; class (1) Very High): 30 | Antimitotic agents % (tumor cell lines; class (1) Very High): 60% | Antimitotic agents Total (40) (tumor cell lines; class (1) Very High): 24 | RNA/DNA antimetabolites % (tumor cell lines; class (1) Very High): 30% | RNA/DNA antimetabolites Total (20) (tumor cell lines; class (1) Very High): 6 | Topoisomerase II inhibitors % (tumor cell lines; class (1) Very High): 33% | Topoisomerase II inhibitors Total (40) (tumor cell lines; class (1) Very High): 13 | kinase inhibitors % (tumor cell lines; class (1) Very High): 35% | kinase inhibitors Total (20) (tumor cell lines; class (1) Very High): 7 | Alkylating agents % (tumor cell lines; class (2) High): 15% | Alkylating agents Total (60) (tumor cell lines; class (2) High): 9 | Antimitotic agents % (tumor cell lines; class (2) High): 15% | Antimitotic agents Total (40) (tumor cell lines; class (2) High): 6 | RNA/DNA antimetabolites % (tumor cell lines; class (2) High): 20% | RNA/DNA antimetabolites Total (20) (tumor cell lines; class (2) High): 4 | Topoisomerase II inhibitors % (tumor cell lines; class (2) High): 18% | Topoisomerase II inhibitors Total (40) (tumor cell lines; class (2) High): 7 | kinase inhibitors % (tumor cell lines; class (2) High): 30% | kinase inhibitors Total (20) (tumor cell lines; class (2) High): 6 | Alkylating agents % (tumor cell lines; class (3) Moderate): 23% | Alkylating agents Total (60) (tumor cell lines; class (3) Moderate): 14 | Antimitotic agents % (tumor cell lines; class (3) Moderate): 23% | Antimitotic agents Total (40) (tumor cell lines; class (3) Moderate): 9 | RNA/DNA antimetabolites % (tumor cell lines; class (3) Moderate): 15% | RNA/DNA antimetabolites Total (20) (tumor cell lines; class (3) Moderate): 3 | Topoisomerase II inhibitors % (tumor cell lines; class (3) Moderate): 28% | Topoisomerase II inhibitors Total (40) (tumor cell lines; class (3) Moderate): 11 | kinase inhibitors % (tumor cell lines; class (3) Moderate): 20% | kinase inhibitors Total (20) (tumor cell lines; class (3) Moderate): 4 | Alkylating agents % (tumor cell lines; class (4) Weak): 4% | Alkylating agents Total (60) (tumor cell lines; class (4) Weak): 2 | Antimitotic agents % (tumor cell lines; class (4) Weak): 3% | Antimitotic agents Total (40) (tumor cell lines; class (4) Weak): 1 | RNA/DNA antimetabolites % (tumor cell lines; class (4) Weak): 10% | RNA/DNA antimetabolites Total (20) (tumor cell lines; class (4) Weak): 2 | Topoisomerase II inhibitors % (tumor cell lines; class (4) Weak): 10% | Topoisomerase II inhibitors Total (40) (tumor cell lines; class (4) Weak): 4 | kinase inhibitors % (tumor cell lines; class (4) Weak): 5% | kinase inhibitors Total (20) (tumor cell lines; class (4) Weak): 1 | Alkylating agents % (tumor cell lines; class (5) Additive effect): 0% | Alkylating agents Total (60) (tumor cell lines; class (5) Additive effect): 0 | Antimitotic agents % (tumor cell lines; class (5) Additive effect): 0% | Antimitotic agents Total (40) (tumor cell lines; class (5) Additive effect): 0 | RNA/DNA antimetabolites % (tumor cell lines; class (5) Additive effect): 0% | RNA/DNA antimetabolites Total (20) (tumor cell lines; class (5) Additive effect): 0 | Topoisomerase II inhibitors % (tumor cell lines; class (5) Additive effect): 8% | Topoisomerase II inhibitors Total (40) (tumor cell lines; class (5) Additive effect): 3 | kinase inhibitors % (tumor cell lines; class (5) Additive effect): 5% | kinase inhibitors Total (20) (tumor cell lines; class (5) Additive effect): 1 | Alkylating agents % (tumor cell lines; class (6) Antagonist effect): 7% | Alkylating agents Total (60) (tumor cell lines; class (6) Antagonist effect): 4 | Antimitotic agents % (tumor cell lines; class (6) Antagonist effect): 0% | Antimitotic agents Total (40) (tumor cell lines; class (6) Antagonist effect): 0 | RNA/DNA antimetabolites % (tumor cell lines; class (6) Antagonist effect): 25% | RNA/DNA antimetabolites Total (20) (tumor cell lines; class (6) Antagonist effect): 5 | Topoisomerase II inhibitors % (tumor cell lines; class (6) Antagonist effect): 5% | Topoisomerase II inhibitors Total (40) (tumor cell lines; class (6) Antagonist effect): 2 | kinase inhibitors % (tumor cell lines; class (6) Antagonist effect): 5% | kinase inhibitors Total (20) (tumor cell lines; class (6) Antagonist effect): 1 | drugs exhibiting a potentiating effect when combined (tumor cell lines; drugs tested at their IC50 values): 91%

C=C1CC/C=C(/C)CC[C@@H]2[C@@H]1CC2(C)C [isocaryophyllene]
IC50 (MCF-7; combined with 10 μg/ml of beta-caryophyllene): 16 µg/mL | IC50 (MCF-7; used alone): 30 µg/mL
